Marks after values point to notes of the source that are not given here.
Experiments:
[1] = test system: UVB-Induced Dermal Damage in the Hairless Mouse; test: Repair of UVB-induced dermal damage in the hairless mouse (repair zone by histology, Luna's stain, image analyzer); format: in vivo, Hairless mice (HRS/J strain); conditions: three times per week, 10 weeks, total area per twenty microscopic fields
Source text: Hairless mice (HRS/J strain, Jackson Labs, 5-7 weeks old at the start of the experiments) were irradiated three times per week with a bank of 8 Westinghouse® Sunlamps (FS40) placed about 20cm above the animals. The radiation dose was controlled by an International Light Model IL844A Phototherapy Exposure Control and a detector. The UVB dosing schedule was such that individual doses, seldom exceeding 0.06J/cm², caused minimal erythema but no burning or scarring. There was significant elastosis, detected by histology, after a total dose of about 3.5J/cm²: this was confirmed in measurements of elastin in whole skin by means of a radioimmunoassay for desmosine. Desmosine is found in elastin hydrolysates and is derived from crosslinks in the elastin molecule; it is a reliable index of total elastin. Typically, desmosine increased by about 2-3 fold after 3.5J/cm² of UVB irradiation. To effect repair of the dermal damage, the UVB irradiation was discontinued and animals were treated three times per week with various concentrations of the compounds of formula I dissolved in acetone. Solutions were made up freshly every week at concentrations such that the dose was delivered in 100µl acetone and applied topically to an area of about 10 cm² on the back of the animal with a plastic pipette; a control group treated with acetone alone was also included. After 10 weeks of treatment the animals were sacrificed, skin samples were taken and processed by standard methods. A six µm [micron] section from each animal was stained for elastin with Luna's stain and the degree of repair measured quantitatively. In this model, repair is defined by the appearance of a normalized dermis extending from the epidermis down to the layer of compressed elastin. The extent of repair was reflected by the width of this zone. In these studies, the area of the zone on a standard length of histological section was measured by an image analyzer and the results are given as total area in mm² per twenty microscopic fields. Data was analyzed by Student's t-test. The results are given in Table I. In Table I, and Table II each group dosed at a particular concentration of compound of formula I contained six to ten animals.

[2] = test system: Wrinkles Produced in Hairless Mice by UVB-Irradiation; test: Effect on wrinkles produced in hairless mice by UVB irradiation (skin replica, visual Wrinkle Index); format: in vivo
Source text: Hairless mice (HRS/J strain, Jackson Labs, 5-7 weeks old at the start of the experiments) were irradiated three times per week with a bank of 8 Westinghouse® Sunlamps (FS40) placed about 20cm above the animals. The radiation dose was controlled by an International Light Model IL844A Phototherapy Exposure Control and a detector. The UVB dosing schedule was such that individual doses, seldom exceeding 0.06J/cm², caused minimal erythema but no burning or scarring. There was significant elastosis, detected by histology, after a total dose of about 3.5J/cm²: this was confirmed in measurements of elastin in whole skin by means of a radioimmunoassay for desmosine. Desmosine is found in elastin hydrolysates and is derived from crosslinks in the elastin molecule; it is a reliable index of total elastin. Typically, desmosine increased by about 2-3 fold after 3.5J/cm² of UVB irradiation. To effect repair of the dermal damage, the UVB irradiation was discontinued and animals were treated three times per week with various concentrations of the compounds of formula I dissolved in acetone. Solutions were made up freshly every week at concentrations such that the dose was delivered in 100µl acetone and applied topically to an area of about 10 cm² on the back of the animal with a plastic pipette; a control group treated with acetone alone was also included.
One skin replica for each animal was taken of these areas using a liquid dental impression material (SILFLO® - Flexico Developments Ltd., England). Wrinkles appeared in these impressions as ridges which cast a shadow when illuminated with low angle light. A characteristic of the wrinkling pattern was the occurrence of the ridges in a regularly-spaced array about 2-mm apart. The extent of wrinkling was visually assessed using this line pattern and assigned a value (Wrinkle Index) of zero to 4 with zero representing complete effacement of wrinkling and 4 representing the maximum degree of wrinkling. It was observed that compounds of formula I caused a dose-dependent effacement of the wrinkles with ED₅₀ values in the microgram range.

## C/C(=C\c1ccc(SC(=O)N(C)C)cc1)c1ccc2c(c1)C(C)(C)CCC2(C)C [Compound A]
[1]; 0.1 µg topical in 100 µl acetone
  Repair Zone: 0.005 +/- 0.001 mm²
[1]; 0.5 µg topical in 100 µl acetone
  Repair Zone: 0.006 +/- 0.003 mm²
[1]; 2.0 µg topical in 100 µl acetone, P < 0.05 vs Control
  Repair Zone: 0.021 +/- 0.003* mm²
[1]; 10.0 µg topical in 100 µl acetone
  Repair Zone: 0.015 +/- 0.004 mm²
[1]; 50.0 µg topical in 100 µl acetone, P < 0.05 vs Control
  Repair Zone: 0.025 +/- 0.007* mm²
[2]; 0.1 µg topical, scale zero (complete effacement) to 4 (maximum wrinkling)
  Wrinkle Index: 1.4 +/- 0.5
[2]; 0.5 µg topical, scale zero to 4, P < 0.05 vs Control
  Wrinkle Index: 1.0 +/- 0.3*
[2]; 2.0 µg topical, scale zero to 4, P < 0.01 vs Control
  Wrinkle Index: 0.8 +/- 0.2**
[2]; 10.0 µg topical, scale zero to 4, P < 0.001 vs Control
  Wrinkle Index: 0.3 +/- 0.1***
[2]; 50.0 µg topical, scale zero to 4, P < 0.001 vs Control
  Wrinkle Index: 0.3 +/- 0.1***
